Data taken from US20110251230A1, “THERAPEUTICS FOR NEUROLOGICAL DISORDERS” (UNIVERSITY OF SHEFFIELD, priority 2008, published 2011).
Like-named read-outs stand apart in the source and are kept apart here.

Tests used:
[1] = test system: Haem oxygenase 1 and NQO1 gene expression in C6 cells; assay: Multiplex/quantitative RT-PCR for NRF2 regulated genes in C6 cells; assay type: cell-based, rat
Protocol: (§1) Quantitative RT-PCR. (Q-PCR) was performed using 25 ng of cDNA, 1× SYBR Green PCR Master Mix (Stratagene) and optimised concentrations of forward and reverse primers (Table 1), in a total volume of 20 μl and in triplicate for each sample. Following denaturation at 95° C. for 10 min, products were amplified by 40 cycles of 95° C. for 15 s and 60° C. for 1 min, on an MX3000P Real Time PCR System (Stratagene). To ensure amplification of a single product the dissociation curve was produced for each amplification. The relative levels of the genes of interest in the samples was determined by normalizing the level of expression to that of gapdh in each of the samples and by using the ddCt calculation (SYBR Green PCR mix and RT-PCR protocol, Applied Biosystems). Overall relative concentrations of the genes of interest were calculated following drug treatment by normalising the data to the cells grown in the vehicle (DMSO).

[2] = mouse, in vivo, iv
[3] = test system: HO-1 and NQO-1 transcripts; assay: In vivo pharmacodynamics, QRT-PCR for HO-1 and NQO-1 in mice; conditions: mouse
[4] = test system: motor neurones (MN) in primary mouse astrocyte/MN co-cultures; assay: Menadione stress in primary mouse astrocyte/motor neurone co-cultures; assay type: cell-based
Protocol: Mouse glial cultures were established from C57BI/6 cortices from 1-2 day old pups. Cortices were dissected out and cells dissociated by trituration following incubation in DNasel, collagenase and trypsin. The incubation and trituration steps were repeated to ensure complete dissociation of cells. Cells were plated at 45,000 cells/cm^2 in DMEM containing 10% FBS, 100 U/ml penicillin, and 100 μg/ml streptomycin. After 24 hours, cultures were washed in PBS and grown for 2-3 weeks until confluent, changing the medium once a week. Confluent glial cultures were enriched for astrocytes by shaking and mild trypsinisation. Enriched astrocytes were grown to confluency and plated onto coverslips coated with poly-D-ornithine (1.5 mg/ml; Sigma, Poole, UK) at 40,000 cells/cm^2, and grown for 1 week. […]
When co-cultures were established for 2 weeks, neuroprotection assays were performed by 24 hrs exposure to drug or vehicle followed by a 6 hour 10 micromolar menadione oxidative stress or glutamate. […] Total MNs were counted by fluorescent microscopy in a 1.5 cm^2 area per coverslip. […] Both vehicle and drug treatments were counted before and after stress treatment, and results were statistically analysed by 2 way anova using Bonferroni post tests.
The co-cultures were then challenged for 6 hours with 10 μM menadione to induce oxidative stress and motor neurones stained and counted. […]

[5] = test system: NQO1 and HO1 transcripts in primary mouse astrocytes from G93A mutant SOD1 transgenic mice; assay: Quantitative RT-PCR of NQO1 and HOX1 in G93A mutant SOD1 primary mouse astrocytes; assay type: cell-based
Protocol: as §1

[6] = test system: NRF2-ARE pathway in C6 cells; assay: ARE reporter assay in C6 astrocyte cell line; assay type: cell-based, rat
Excerpt: NRF2-ARE Inducing activity of the best hit compounds in neuronal and astrocytic cell lines was investigated. In order to determine whether the differences in protection in astrocytic and motor neuronal cell lines was due to differences in the degree of activation of the NRF2-ARE pathway in these cell types, the NRF2-ARE reporter construct was stably expressed in both the astrocytic (C6) and motor neuronal (NSC34) cell lines. The 17 best hit molecules were then screened in each cell line. We also screened the S [+] enantiomer of apomorphine as it can exist as either an R[−] or S[+] enantiomer. The […] enantiomer has dopamine agonist activity whereas the S[+] enantiomer has lost this activity and so we wanted to determine whether it retains NRF2-ARE inducing activity. In general activation of the NRF2-ARE pathway in the C6 cells was similar to that seen in the CHO cell line. […].

[7] = test system: NRF2-ARE pathway in the CHO 4× ARE-TK cell line; assay: ARE reporter assay in CHO 4×ARE-TK-GFP cell line (GFP induction, EthD1 toxicity)
Protocol: Chinese Hamster Ovary (CHO), NSC34 mouse motor neuronal cells, C6 (rat) and 1321N1 (human) astrocytic lines were routinely maintained in DMEM supplemented with 10% FBS and penicillin/streptomycin. […] These plasmids were transfected into CHO, C6 and 1321N1 cell lines using Lipofectamine 2000 (Invitrogen) and following 10-14 days of selection in 0.5 mg/ml G418 they were expanded and selected for basal eGFP expression using fluorescence activated cell sorting (BD, FACSAria) with two sequential cell sorts for each cell line. These mixed populations of stable transfectants with basal eGFP expression were used in subsequent assays and designated 4×ARE-TK-GFP for the ARE containing line and TK-GFP for the control cell line. […]
Confluent cultures of 4×ARE-TK-GFP CHO or TK-GFP CHO expressing cells in 96 or 384-well tissue-culture plates were treated with drug (0.01-100 µM in triplicate) or vehicle (0.1-1% DMSO) in FCS-free DMEM in triplicate for 24 hours. The media was removed and replaced with the same volume of PBS containing 0.3 μM EthD1. […] Non-linear regression was used to fit a sigmoidal dose-response curve on a semi-Log plot to calculate the EC50 using GraphPad Prism (GraphPad Software). The reporter assay was conducted in a similar fashion in C6 and 1321N1 astrocyte cell lines stably transfected with the 4×ARE-TK-GFP and TK-GFP constructs except that Eth D1 was added directly in the media and read prior to washing the cells once and reading the […] signal. […]
The compounds were applied in triplicate to confluent cells in 96 well plates in serum free medium for 24 hours and the induction of GFP measured in a fluorescence plate reader. […]

[8] = test system: 1321N1 (human) astrocytic line; assay: 1321N1 oxidative stress assay (serum withdrawal, DCF)
Protocol: (§2) A simple oxidative stress assay was used to determine whether preconditioning with NRF2-ARE inducing drugs could protect against a subsequent oxidative stress insult (serum withdrawal). The NSC34, C6 and 1321N1 cells were plated in 96 well tissue culture plates to achieve 30% confluency. […] Media was then replaced with serum free, phenol free media for 5 hrs. […] Cell survival assay was then performed on the cells as protection is measured as % reduction in DCF signal, therefore data points were excluded where a decrease in cell number was measured.
(§3) Briefly methylthiazolyldiphenyl-tetrazolium bromide (MTT) was added to the cells and a blank well to a final concentration 0.5 mg/ml and incubated at 37° C. for 1-3 hrs depending on the cell line used.

[9] = test system: NSC34 mouse motor neuronal cells; assay: NSC34 oxidative stress assay (serum withdrawal, DCF); conditions: NSC34
[10] = test system: C6 (rat) astrocytic line; assay: C6 oxidative stress assay (serum withdrawal, DCF)
Protocol: as §2, §3

[11] = test system: motor neuronal cell line expressing mutant (G93A) human SOD1; conditions: prior art; cited from earlier work
[12] = test system: G93A mouse model of ALS; conditions: higher doses, once a day, orally from 60 days of age; prior art; cited from earlier work

## CN1CCc2cccc3c2[C@H]1Cc1ccc(O)c(O)c1-3.Cl (single isomer, unassigned) [S[+] apomorphine, S [+] apomorphine]
[1]
  Haem oxygenase 1 and NQO1 gene expression: statistically significant changes in gene expression
[2]
  levels of the compound in plasma, brain and cerebral spinal fluid: detected
[3]
  induction of HO-1 and NQO-1 transcripts: significant induction
[4]
  reduction in motor neurone number after menadione: not seen
[5]
  transcripts for NQO1 and HO1: significant increase
[6]
  NRF2-ARE activation in C6 reporter cell line: equally potent

## C=C1CC[C@@H]2[C@](C)(CO)[C@H](O)CC[C@@]2(C)[C@@H]1C/C=C1/C(=O)OC[C@H]1O [Andrographolide]
[1]; C6 cells, 24 h, EC50 and EC90 concentrations
  Haem oxygenase 1 and NQO1 gene expression: statistically significant changes in gene expression
[7]; Chinese hamster, 24 h
  Lowest dose with toxicity: 100 µM
[7]; Cricetulus griseus, 24 h, read-out: Average EC50, CHO 4×ARE-TK-GFP, GFP induction, 24 h
  EC50: 740 nM
[7]; Cricetulus griseus, 24 h, read-out: Average fold GFP induction at maximal response
  maximal fold induction: 3.61
[7]; Cricetulus griseus, CHO ARE reporter
  EC50: 740 nM
[4]; 24 h pre-treatment, 6 hours 10 μM menadione, DMSO control approximately 25% reduction
  reduction in motor neurone number after menadione: not seen
[8]; 1321N1
  Lowest dose with toxicity: 10 µM
[8]; 1321N1, 24 h pre-treatment, serum withdrawal, DCF
  IC50: 501 nM
[9]
  Lowest dose with toxicity: 10 µM
[5]; G93A mutant SOD1 astrocytes, 24 hour pre-treatment, EC90 concentrations
  transcripts for NQO1 and HO1: significant increase
[10]; C6
  Lowest dose with toxicity: 10 µM
[10]; C6, 24 h pre-treatment, serum withdrawal, DCF
  IC50: 192 nM

## O=C(O[C@@H]1Cc2c(O)cc(O)cc2O[C@@H]1c1cc(O)c(O)c(O)c1)c1cc(O)c(O)c(O)c1 [EGCG, catechin-(−) epigallocatechin-3-gallate, reference compound]
[11]
  concentration giving partial protection from H2O2 induced cell death: greater than 20 μM
[7]; control TK-GFP CHO cell line
  fluorescence in the control TK-GFP cell line: No increase in fluorescence
[7]; narrow window, 24 h, serum free medium
  concentration of peak ARE activation (GFP expression): 100 µM
[12]
  survival: significant extension in survival
